Assay results published in patent US20060018951A1, “pH-responsive film for intravaginal delivery of a beneficial agent” (SRI International, priority 2003, published 2006).

System: sperm
Test: Sperm motility assay
Assay type: cell-based, Sprague-Dawley rats
Procedure: Male Sprague-Dawley-rats, between the ages of 16-22 weeks, were used for this study. Following anesthesia, both testes were removed and the epididymides were collected, rinsed in warm Dulbecco's phosphate buffered saline (37° C.), and placed in a petri dish containing approximately 10 mL warm MHF-10 (37° C.). The epididymides were minced with scissors to release sperm. Pipette sperm suspension into a 50 mL plastic centrifuge tube with a screw cap. Dilute sperm with additional MHF-10 (approximately 5-12 mL) to form a milky suspension. The initial percentage of motile sperm must be at least 70% for a valid assay, and is determined by inoculating 200 μL sperm suspension into 0.8 mL MHF-10 and counting motile versus nonmotile sperm. After the test article concentrations equilibrated in a 36° to 37° C. incubator for at least 30 minutes, 200 μL aliquots of the sperm suspension were added to the 0.8 mL test compound concentrations, two at a time, at 5 minute intervals, beginning with the highest concentration and proceeding to in order to the lowest concentration, then ending with vehicle and positive controls. The final volume was 1 mL per test compound concentration. Motility was assessed using a microscope. 50-μL aliquots of the test concentration, containing sperm, were added to the wells of preheated glass slides and covered with preheated glass coverslips. Pipette tips, slides, and coverslips were maintained at 36-37° C. on a warming plate. Motility was assessed at the appropriate exposure times, generally 20 and 40 min after addition of sperm to the test concentration. The degrees of motility of≧200 sperm per concentration per time point were evaluated as either not motile (0), incipiently motile (quivering/pulsing/wiggling) (1), slowly motile (2), or rapidly motile (3). Criteria for a Valid Assay. […] Percent motility in the tables below is calculated as (Prog. Motile)/Total (Prog.+Incip.+Non)×100.

[1] = Experiment B, 1 min, film 49.1-50 mg, N9 amount not given, sperm count
[2] = Experiment B, 15 min, film 49.1-50 mg, N9 amount not given, sperm count
[3] = Experiment B, 30 min, film 49.1-50 mg, N9 amount not given, sperm count
[4] = Experiment C, 1 min, Nos 5-8: films 49.9-51.0 mg, N9 amount not given, sperm count
[5] = Experiment C, 15 min, Nos 5-8: films 49.9-51.0 mg, N9 amount not given, sperm count
[6] = Experiment C, 30 min, Nos 5-8: films 49.9-51.0 mg, N9 amount not given, sperm count
[7] = Experiment D, 1 min, films 50-50.09 mg, N9 amount not given, sperm count
[8] = Experiment D, 15 min, films 50-50.09 mg, N9 amount not given, sperm count
[9] = Experiment D, 30 min, films 50-50.09 mg, N9 amount not given, sperm count
[10] = first sperm study (T8), 1 min, films 4.3-19.8 mg, sperm count
[11] = first sperm study (T8), 15 min, films 4.3-19.8 mg, sperm count
[12] = first sperm study (T8), 30 min, films 4.3-19.8 mg, sperm count

CC(O)C(=O)O (centres unmarked) [Lactic Acid 4%, Lactic Acid]
200: Non-Mot (Experiment B, 1 min, 200 μl solution, sperm count)
103: Non-Mot (Experiment B, 1 min, 100 μl solution, sperm count)

nonylphenoxypolyethoxy ethanol [Formulation N-9]
0: Incip.Mot [1] | Prog.-Mot [1] | Incip.Mot [2] | Incip.Mot [3] | Prog.Mot [3] | Incip.Mot [4] | Prog-Mot [4] | Total (Experiment C, 15 min, Nos 5-8: films 49.9-51.0 mg, N9 amount not given) | Incip.Mot [5] | Mot [5] | Total (Experiment C, 30 min, Nos 5-8: films 49.9-51.0 mg, N9 amount not given) | Incip.Mot [6] | Mot [6] | Incip.Mot [7] | Prog.Mot [7] | Incip.Mot [8] | Prog.Mot [8] | Incip.Mot [9] | Mot [9] | Incip.Mot [10] | Incip.Mot [11] | Prog-Motile [11] | Incip.Mot [12] | Prog-Motile [12]
200: Non-Mot [1] | Non-Mot [2] | Non-Mot [3] | Non-Mot [4] | Non-Mot [5] | Non-Mot [6] | Non-Mot [7] | Non-Mot [8]
100: Non-Mot [10] | Non-Motile [11] | Non-Motile [12]
0%: % Motility (Experiment B, 1 min, film 49.1-50 mg, N9 amount not given) | % Motility (Experiment B, 15 min, film 49.1-50 mg, N9 amount not given) | % Motility (Experiment B, 30 min, film 49.1-50 mg, N9 amount not given) | % Motility (Experiment C, 1 min, Nos 5-8: films 49.9-51.0 mg, N9 amount not given) | % Motility (Experiment D, 1 min, films 50-50.09 mg, N9 amount not given) | % Motility (Experiment D, 15 min, films 50-50.09 mg, N9 amount not given) | % Motility (Experiment D, 30 min, films 50-50.09 mg, N9 amount not given) | % Motility (first sperm study (T8), 1 min, films 4.3-19.8 mg) | % Motility (first sperm study (T8), 15 min, films 4.3-19.8 mg) | % Motility (first sperm study (T8), 30 min, films 4.3-19.8 mg)
